Assay results taken from patent US20150290200A1, “INTRACELLULAR KINASE INHIBITORS” (Pharmacyclics Inc., priority 2006, published 2015).
Where two headings read alike, the source gives them in different places. Blank lines part the entries; values can stand above or below the compound they belong to.

Tests used:
BTK kinase domain = molecular target: T1, BTK kinase domain (Homo sapiens, UniProt Q06187); experiment: In vitro kinase assay (HITHUNTER), BTK; assay type: biochemical
T1 construct: The kinase domains of BTK, LCK and ERK were expressed as recombinant purified proteins; made in house
T1 sequence (Q06187 402-655 limits assumed): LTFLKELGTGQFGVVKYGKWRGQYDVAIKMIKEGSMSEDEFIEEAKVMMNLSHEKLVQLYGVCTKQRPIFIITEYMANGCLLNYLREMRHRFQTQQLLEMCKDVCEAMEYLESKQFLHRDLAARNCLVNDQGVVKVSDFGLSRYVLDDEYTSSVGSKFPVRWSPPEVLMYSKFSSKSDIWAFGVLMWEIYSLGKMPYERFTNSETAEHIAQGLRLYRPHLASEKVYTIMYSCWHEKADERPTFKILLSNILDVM
Text: Similarly, commercially available reagents such as HITHUNTER™ were used to evaluate the effect of compounds on the activity of additional kinases. The kinase domains of BTK, LCK and ERK were expressed as recombinant purified proteins were used for these studies.

ITK kinase domain = molecular target: T2, ITK kinase domain (Homo sapiens, UniProt Q08881); experiment: In vitro kinase assay (HITHUNTER enzyme fragment complementation), ITK; assay type: biochemical; settings: for IC50 ITK: Table 7, elimination mechanism
T2 construct: N-terminally His-tagged ITK kinase domain (amino acids 352-617); His (N); made in house
T2 sequence (Q08881 352-617): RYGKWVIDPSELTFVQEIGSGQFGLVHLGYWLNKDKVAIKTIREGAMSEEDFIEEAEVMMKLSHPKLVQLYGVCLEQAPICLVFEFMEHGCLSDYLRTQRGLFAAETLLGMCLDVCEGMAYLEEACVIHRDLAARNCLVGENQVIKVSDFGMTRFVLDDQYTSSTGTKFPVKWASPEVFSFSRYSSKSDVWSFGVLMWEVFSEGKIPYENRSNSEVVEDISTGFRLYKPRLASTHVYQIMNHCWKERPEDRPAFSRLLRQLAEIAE
Experimental: Compounds were screened using the HITHUNTER™ enzyme fragment complementation method (Discoverx). Briefly, a recombinantly produced, N-terminally His-tagged ITK kinase domain (amino acids 352-617) was incubated with various concentrations of individual compounds. ATP and substrate were added, and the kinase reaction was allowed to proceed for 2-16 hours. Commercially available detection reagents were added and allowed to react for 2-4 hours. The reaction was evaluated by luminescence. Initial results were confirmed using full-length recombinant ITK protein.
In order to confirm the mechanism by which compounds depicted herein interact with the kinase domain of Tec and EGFR kinases, we created a point mutant of the ITK kinase domain, whereby the key amino acid, namely C442 was mutated to alanine. The protein was expressed in a commercial baculovirus expression system using the manufacturer's general protocol (Invitrogen, pBlueBac). Protein was expressed and purified using standard techniques. […] While the activity of WT-ITK was inhibited by compounds depicted in this application, the same compounds had no activity towards the C442A mutant kinase domain.

[1] = Table 3, naphthyl analog, read-out: IC50 ITK
[2] = Table 3, Compound, read-out: IC50 ITK

IC50 (BTK kinase domain; Table 5): 117 nM
IC50 (ITK kinase domain; Table 5, read-out: IC50 ITK): 66 nM
Compound: O=C(CCN1CCS(=O)(=O)CC1)c1ccc2ccccc2c1

IC50 (ITK kinase domain; Table 5, read-out: IC50 ITK): 14.7 nM
Compound: O=C(CCN1CCN(CC2CCCCC2)CC1)c1ccc2ccccc2c1 [drawing 219]

IC50 (BTK kinase domain; Table 5): 410 nM
IC50 (ITK kinase domain; Table 5, read-out: IC50 ITK): 117 nM
Compound: O=C(CCN1CCNCC1)c1ccc2ccccc2c1

IC50 (BTK kinase domain; Table 5): 115 nM
IC50 (ITK kinase domain; Table 5, read-out: IC50 ITK): 7.2 nM
Compound: COc1cc2c(cc1OC)CN(CCC(=O)c1ccc3ccccc3c1)CC2 [drawing 212]

IC50 (BTK kinase domain; Table 4): 17 nM
IC50 (ITK kinase domain; Table 4, read-out: IC50 ITK): 10 nM
Compound: O=C(CCN1CCOCC1)c1cc2ccccc2s1

IC50 (BTK kinase domain; Table 5): 486 nM
IC50 (ITK kinase domain; Table 5, read-out: IC50 ITK): 284 nM
Compound: O=C(CCN1CCC(C(=O)c2ccncc2)CC1)c1ccc2ccccc2c1

IC50 (BTK kinase domain; Table 5): 89 nM
IC50 (ITK kinase domain; Table 5, read-out: IC50 ITK): 66 nM
Compound: CC(=O)N1CCN(CCC(=O)c2ccc3ccccc3c2)CC1

IC50 (ITK kinase domain; Table 1, ITK, read-out: IC50): 19.6 nM
Compound: CN(CCC(=O)c1ccc2ccccc2c1)Cc1ccco1 [drawing 118]

IC50 (BTK kinase domain; Table 5): 242 nM
IC50 (ITK kinase domain; Table 5, read-out: IC50 ITK): 60 nM
Compound: O=C(CCN1CCN(C(=O)N2CCOCC2)CC1)c1ccc2ccccc2c1

IC50 (BTK kinase domain; Table 5): 84 nM
IC50 (ITK kinase domain; Table 5, read-out: IC50 ITK): 86 nM
Compound: NCC1CCN(CCC(=O)c2ccc3ccccc3c2)CC1

IC50 (ITK kinase domain; Table 5, read-out: IC50 ITK): 24.2 nM
Compound: O=C(CCN1CCN(c2ccccn2)CC1)c1ccc2ccccc2c1 [drawing 211]

IC50 (BTK kinase domain; Table 3, naphthyl analog): 2.15 nM
IC50 (ITK kinase domain; [1]): 7 nM
Compound: CN(C)C1CCN(CCC(=O)c2ccc3ccccc3c2)C1 (centres unmarked) [drawing 171]

IC50 (BTK kinase domain; Table 5): 266 nM
IC50 (ITK kinase domain; Table 5, read-out: IC50 ITK): 217 nM
Compound: O=C(CCN1CCC(CNC(=O)C(F)(F)F)CC1)c1ccc2ccccc2c1

IC50 (ITK kinase domain; Table 4, read-out: IC50 ITK): 22.8 nM
Compound: O=C(CCN1CCC(c2ccccc2)C1)c1ccc2ccccc2c1 (centres unmarked)

IC50 (BTK kinase domain; Table 4): 296 nM
IC50 (ITK kinase domain; Table 4, read-out: IC50 ITK): 49 nM
Compound: O=C(CCN1CCOCC1)c1n[nH]c2ccccc12

IC50 (BTK kinase domain; Table 5): 100 nM
IC50 (ITK kinase domain; Table 5, read-out: IC50 ITK): 163 nM
Compound: O=C(CCNCC1CCNCC1)c1ccc2ccccc2c1

IC50 (BTK kinase domain; Table 3, naphthyl analog): 6.54 nM
IC50 (ITK kinase domain; [1]): 9 nM
Compound: CN(C)C1CCN(CCC(=O)c2ccc3ccccc3c2)CC1 [drawing 177]

IC50 BTK (BTK kinase domain; Table 4): no IC50
IC50 (ITK kinase domain; Table 4, read-out: IC50 ITK): 56400 nM
Compound: O=C(CCN1CCOCC1)c1cc2ccccc2o1

IC50 (ITK kinase domain; Table 1, ITK, read-out: IC50): 4.26 nM
Compound: O=C(CCN1CCN(c2ccccc2)CC1)c1ccc2ccccc2c1

IC50 (BTK kinase domain; Table 5): 39.5 nM
IC50 (ITK kinase domain; Table 5, read-out: IC50 ITK): 20.5 nM
Compound: O=C(CCN1CCOCC1)c1ccc2ccccc2c1 [drawing 200]

IC50 (BTK kinase domain; Table 5): 128 nM
IC50 (ITK kinase domain; Table 5, read-out: IC50 ITK): 60.2 nM
Compound: O=C(CCN1CCC(Cc2ccccc2)CC1)c1ccc2ccccc2c1 [drawing 204]

IC50 (ITK kinase domain; Table 1, ITK, read-out: IC50): 13.6 nM
Compound: CC(C)CN(C)CCC(=O)c1ccc2ccccc2c1

IC50 (ITK kinase domain; Table 4, read-out: IC50 ITK): 74.9 nM
Compound: O=C(CCN1CCCC1)c1ccc2ccccc2c1 [drawing 184]

IC50 ITK (ITK kinase domain): no IC50
Compound: OC(CCN1CCOCC1)c1ccc2ccccc2c1 (centres unmarked)

IC50 (BTK kinase domain; Table 5): 123 nM
IC50 (ITK kinase domain; Table 5, read-out: IC50 ITK): 49 nM
Compound: O=C(CCN1CCC[C@@H]1CO)c1ccc2ccccc2c1

IC50 BTK (BTK kinase domain; Table 4): no IC50
IC50 (ITK kinase domain; Table 4, read-out: IC50 ITK): 1680 nM
Compound: O=C(CCN1CCOCC1)c1cc2ccccc2cn1 [drawing 187]

IC50 (ITK kinase domain; Table 1, ITK, read-out: IC50): 18.1 nM
Compound: CC(C)N(CCC(=O)c1ccc2ccccc2c1)C(C)C [drawing 104]

IC50 (BTK kinase domain; Table 4): 1 nM
IC50 (ITK kinase domain; Table 4, read-out: IC50 ITK): 5 nM
Compound: NC(=O)c1ccc2cc(C(=O)CCN3CCOCC3)ccc2c1 [drawing 198]

IC50 (BTK kinase domain; Table 4): 39 nM
IC50 (ITK kinase domain; Table 4, read-out: IC50 ITK): 20 nM
Compound: O=C(CCN1CCOCC1)c1ccc2ccccc2c1 [drawing 185]

IC50 (ITK kinase domain; Table 5, read-out: IC50 ITK): 16.9 nM
Compound: CN(CCC(=O)c1ccc2ccccc2c1)Cc1ccccc1 [drawing 203]

IC50 (ITK kinase domain; Table 1, ITK, read-out: IC50): 18.3 nM
Compound: O=C(CCN1CCc2ccccc2C1)c1ccc2ccccc2c1 [drawing 115]

IC50 (ITK kinase domain; Table 5, read-out: IC50 ITK): 9.2 nM
Compound: CC(C)N(CCC(=O)c1ccc2ccccc2c1)C(C)C [drawing 220]

IC50 (BTK kinase domain; Table 5): 452 nM
IC50 (ITK kinase domain; Table 5, read-out: IC50 ITK): 56 nM
Compound: CN(C)C(=O)N1CCN(CCC(=O)c2ccc3ccccc3c2)CC1

IC50 (BTK kinase domain; Table 4): 6 nM
IC50 (ITK kinase domain; Table 4, read-out: IC50 ITK): 30 nM
Compound: O=C(CCN1CCOCC1)c1ccc2cc(O)ccc2c1

IC50 (ITK kinase domain; Table 5, read-out: IC50 ITK): 310 nM
Compound: CC1CCN(CCC(=O)c2ccc3ccccc3c2)CC1

IC50 (ITK kinase domain; Table 1, ITK, read-out: IC50): 25.8 nM
Compound: CN(CCC(=O)c1ccc2ccccc2c1)Cc1ccccc1 [drawing 107]

IC50 (BTK kinase domain; Table 5): 373 nM
IC50 (ITK kinase domain; Table 5, read-out: IC50 ITK): 737 nM
Compound: CN(C)C(=O)N1CCC(CNCCC(=O)c2ccc3ccccc3c2)CC1

IC50 (BTK kinase domain; Table 4): 2040 nM
IC50 (ITK kinase domain; Table 4, read-out: IC50 ITK): 75 nM
Compound: O=C(CCN1CCOCC1)c1ccc2occc2c1 [drawing 192]

IC50 ITK (ITK kinase domain): no IC50
Compound: CC(C)(CN1CCCCC1)C(=O)c1ccc2ccccc2c1

IC50 (ITK kinase domain; Table 1, ITK, read-out: IC50): 71.9 nM
Compound: O=C(CCN1CCOCC1)c1ccc2ccccc2c1 [drawing 117]

IC50 (BTK kinase domain; Table 3, Compound): 150 nM
IC50 (ITK kinase domain; [2]): 13 nM
Compound: CN(C)C1CCN(CCC(=O)c2ccc3c(c2)NC(=O)CO3)CC1

IC50 (BTK kinase domain; Table 3, Compound): 1890 nM
IC50 (ITK kinase domain; [2]): 72 nM
Compound: CN(C)C1CCN(CCC(=O)C2=CC3NC(=O)COC3C=C2)C1 (centres unmarked)
